Results as given in patent US9617259B2, “Histone deacetylase inhibitors and compositions and methods of use thereof” (CHDI Foundation, Inc., priority 2013, dated 2017).

target: human catalytic domain HDAC4 protein (amino acids 648-1032) (Homo sapiens (Human), UniProt P56524); assay: Inhibition of HDAC4 catalytic domain enzymatic activity, fluorogenic substrate Boc-Lys(Tfa)-AMC; conditions: read-out: Biochemical HDAC-4 IC50
Excerpt: Analysis of Inhibition of HDAC4 with Class IIa Histone Deacetylase (HDAC) Inhibitors
The potency of Class IIa Histone Deacetylase (HDAC) inhibitors is quantified by measuring the Histone Deacetylase 4 (HDAC4) catalytic domain enzymatic activity using the fluorogenic substrate, Boc-Lys(Tfa)-AMC. The substrate is deacetylated to Boc-Lys-AMC by HDAC4. Cleavage by trypsin results in the release of the fluorophore AMC from the deacetylated substrate. The fluorescence of the sample is directly related to the histone deacetylase activity in the sample.
Serial dilutions of the HDAC inhibitors and control reference compound (1-(5-(3-((4-(1,3,4-oxadiazol-2-yl)phenoxy)methyl)-1,2,4-oxadiazol-5-yl)thiophen-2-yl)-2,2,2-trifluoroethanone) are made by first resuspending the lyophilized compound to a final concentration of 10 mM in 100% dimethyl sulfoxide (DMSO). Stocks of 60 μl aliquots of the 10 mM compound in DMSO are prepared and stored at −20° C. From one stock aliquot of each compound to be tested and the reference compound, a 16-point serial dilution is prepared according to
2 μl (200×) of each diluted solution and each control (full activity: 100% DMSO alone or full inhibition 1 mM) is stamped into V-bottomed polypropylene 384-well compound plates using either the Bravo (384-well head from Agilent) or 12.5 μl 16-channel Matrix multi-channel pipette (Matrix Technologies Ltd).
A working solution of enzyme is prepared from a 500 μg/ml stock aliquot of HDAC4 catalytic domain (thawed on ice) diluted to 0.2 μg/ml with assay buffer (50 mM Tris-HCl, 137 mM NaCl, 2.7 mM KCl, and 1 mM MgCl2 at pH 8 and equilibrated to room temperature) just prior to the addition of the enzyme to the assay.
5× (50 μM) substrate is prepared just prior to the addition to the assay. A 1 mM substrate stock is made by diluting a 100 mM Boc-Lys(Tfa)-AMC in DMSO solution 1:100 by adding it drop-wise to assay buffer (equilibrated to room temperature) while vortexing at slow speed to prevent precipitation. The 5× substrate is prepared by diluting the 1 mM substrate solution 1:20 by adding it drop-wise to assay buffer (equilibrated to room temperature) while vortexing at slow speed to prevent precipitation.
3× (30 μM) Developer/Stop Solution is prepared just prior to addition to the plate by diluting a stock solution of 10 mM reference compound 1:333 in 25 mg/ml trypsin (PAA Laboratories Ltd.) equilibrated to room temperature.
5 μl of each solution of 1:20 diluted compound from above is transferred to a clear bottomed, black, 384-well assay plate using the Bravo or the Janus (384-well MDT head from Perkin Elmer). Using a 16-channel Matrix multi-channel pipette, 35 μl of the working solution of HDAC4 catalytic domain enzyme (0.2 μg/ml in assay buffer) is transferred to the assay plate. The assay is then started by adding 10 μl of 5× (50 μM) substrate to the assay plates using either the Bravo, Janus or 16-channel Matrix multi-channel pipette. The assay plate is then shaken for two minutes on an orbital shaker at 900 rpm (rotations per minute). Next the plate is incubated for 15 minutes at 37° C. The reaction is stopped by adding 25 al of 3× (30 μM) developer/stop solution to the assay plates using either the Bravo, Janus or a 16-channel Matrix multi-channel pipette. Assay plates are then shaken for 5 minutes on an orbital shaker at 1200 rpm. Next, the assay plates are incubated at 37° C. for 1 hour in a tissue culture incubator. Finally, the fluorescence is measured (Excitation: 355 nm, Emission: 460 nm) using PerkinElmer EnVision in top read mode.

human catalytic domain HDAC4 protein (amino acids 648-1032), sequence (P56524 648-1032): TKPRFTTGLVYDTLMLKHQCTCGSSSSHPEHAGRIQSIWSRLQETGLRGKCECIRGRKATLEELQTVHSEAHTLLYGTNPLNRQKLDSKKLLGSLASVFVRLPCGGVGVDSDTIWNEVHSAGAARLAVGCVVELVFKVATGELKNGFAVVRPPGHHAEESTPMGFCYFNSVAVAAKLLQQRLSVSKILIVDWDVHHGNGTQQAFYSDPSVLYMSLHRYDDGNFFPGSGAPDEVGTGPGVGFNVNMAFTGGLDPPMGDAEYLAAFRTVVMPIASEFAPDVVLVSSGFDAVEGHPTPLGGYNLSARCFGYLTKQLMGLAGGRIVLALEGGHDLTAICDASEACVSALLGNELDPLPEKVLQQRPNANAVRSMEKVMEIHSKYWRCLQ

SMILES	IC50
Cc1c(F)cccc1[C@@]1(C(=O)NO)C=C(c2cncc(F)c2)CC1 [Example 6, (S)-1-(3-fluoro-2-methylphenyl)-3-(5-fluoropyridin-3-yl)-N-hydroxycyclopent-2-enecarboxamide]	10 nM
Cc1c(F)cccc1[C@@]1(C(=O)NO)C=C(c2ccc3nc(C(F)(F)F)cnc3c2)CC1 [Example 20, (S)-1-(3-fluoro-2-methylphenyl)-N-hydroxy-3-(2-(trifluoromethyl)quinoxalin-6-yl)cyclopent-2-enecarboxamide]	70 nM
Cc1c(F)cccc1[C@@]1(C(=O)NO)C=C(c2cncnc2)CC1 [Example 14, (S)-1-(3-fluoro-2-methylphenyl)-N-hydroxy-3-(pyrimidin-5-yl)cyclopent-2-enecarboxamide]	30 nM
Cc1c(F)cccc1[C@@]1(C(=O)NO)C=C(c2ccnn2C)CC1 [Example 27, (S)-1-(3-fluoro-2-methylphenyl)-N-hydroxy-3-(1-methyl-1H-pyrazol-5-yl)cyclopent-2-enecarboxamide]	20 nM
Cc1c(F)cccc1[C@@]1(C(=O)NO)C=C(c2cccc3cnsc23)CC1 [Example 29, (S)-3-(benzo[d]isothiazol-7-yl)-1-(3-fluoro-2-methylphenyl)-N-hydroxycyclopent-2-enecarboxamide]	30 nM
Cc1c(F)cccc1[C@@]1(C(=O)NO)C=C(c2ccc(C(F)(F)F)nc2)CC1 [Example 16, (S)-1-(3-fluoro-2-methylphenyl)-N-hydroxy-3-(6-(trifluoromethyl)pyridin-3-yl)cyclopent-2-enecarboxamide]	20 nM
Cc1c(F)cccc1[C@@]1(C(=O)NO)C=C(c2ccc3onc(C)c3c2)CC1 [Example 22, (S)-1-(3-fluoro-2-methylphenyl)-N-hydroxy-3-(3-methylbenzo[d]isoxazol-5-yl)cyclopent-2-enecarboxamide]	30 nM
O=C(NO)C1(c2ccccc2)CC=CC1 [Example 30, N-hydroxy-1-phenyl-cyclopent-3-enecarboxamide]	12300 nM
Cc1c(F)cccc1[C@@]1(C(=O)NO)C=C(c2cnn(C(F)F)c2)CC1 [Example 18, (S)-3-(1-(difluoromethyl)-1H-pyrazol-4-yl)-1-(3-fluoro-2-methylphenyl)-N-hydroxycyclopent-2-enecarboxamide]	20 nM
Cc1c(F)cccc1[C@@]1(C(=O)NO)C=C(c2cnc(C3CC3)nc2)CC1 [Example 24, (S)-3-(2-cyclopropylpyrimidin-5-yl)-1-(3-fluoro-2-methylphenyl)-N-hydroxycyclopent-2-enecarboxamide]	20 nM
Cc1c(F)cccc1[C@@]1(C(=O)NO)C=C(c2ccn3ccnc3c2)CC1 [Example 21, (S)-1-(3-fluoro-2-methylphenyl)-N-hydroxy-3-(imidazo[1,2-a]pyridin-7-yl)cyclopent-2-enecarboxamide]	10 nM
COc1ncc(C2=C[C@](C(=O)NO)(c3cccc(F)c3C)CC2)cc1F [Example 23, (S)-1-(3-fluoro-2-methylphenyl)-3-(5-fluoro-6-methoxypyridin-3-yl)-N-hydroxycyclopent-2-enecarboxamide]	40 nM
Cc1c(F)cccc1[C@@]1(C(=O)NO)C=C(c2ccccc2)CC1 [Example 2, (S)-1-(3-fluoro-2-methylphenyl)-N-hydroxy-3-phenylcyclopent-2-enecarboxamide]	20 nM
Cc1c(F)cccc1[C@@]1(C(=O)NO)C=C(c2cnn(CC(F)(F)F)c2)CC1 [Example 28, (S)-1-(3-fluoro-2-methylphenyl)-N-hydroxy-3-(1-(2,2,2-trifluoroethyl)-1H-pyrazol-4-yl)cyclopent-2-enecarboxamide]	20 nM
Cc1c(F)cccc1[C@@]1(C(=O)NO)C=C(c2cc(F)cnc2C2CC2)CC1 [Example 19, (S)-3-(2-cyclopropyl-5-fluoropyridin-3-yl)-1-(3-fluoro-2-methylphenyl)-N-hydroxycyclopent-2-enecarboxamide]	40 nM
Cc1c(F)cccc1[C@]1(C(=O)NO)C=C(c2cnccn2)CC1 [Example 7, (R)-1-(3-fluoro-2-methylphenyl)-N-hydroxy-3-(pyrazin-2-yl)cyclopent-2-ene carboxamide]	> 50000 nM
Cc1c(F)cccc1[C@@]1(C(=O)NO)C=C(c2ccc(F)cn2)CC1 [Example 15, (S)-1-(3-fluoro-2-methylphenyl)-3-(5-fluoropyridin-2-yl)-N-hydroxycyclopent-2-enecarboxamide]	40 nM
Cc1c(F)cccc1[C@@]1(C(=O)NO)C=C(c2ccc3nccnc3c2)CC1 [Example 12, (S)-1-(3-fluoro-2-methylphenyl)-N-hydroxy-3-(quinoxalin-6-yl)cyclopent-2-enecarboxamide]	10 nM
Cc1c(F)cccc1[C@@]1(C(=O)NO)C=C(c2cncc(C(F)(F)F)c2)CC1 [Example 17, (S)-1-(3-fluoro-2-methylphenyl)-N-hydroxy-3-(5-(trifluoromethyl)pyridin-3-yl)cyclopent-2-enecarboxamide]	30 nM
Cc1c(F)cccc1[C@]1(C(=O)NO)C=C(c2cncc(F)c2)CC1 [Example 5, (R)-1-(3-fluoro-2-methylphenyl)-3-(5-fluoropyridin-3-yl)-N-hydroxycyclopent-2-enecarboxamide]	670 nM

More lines, now with the values ahead:

IC50	SMILES
10 nM	Cc1ncccc1C1=C[C@](C(=O)NO)(c2cccc(F)c2C)CC1 [Example 37, (S)-1-(3-fluoro-2-methylphenyl)-N-hydroxy-3-(2-methylpyridin-3-yl)cyclopent-2-enecarboxamide]
10 nM	Cc1c(F)cccc1[C@@]1(C(=O)NO)C=C(c2ccc3cnn(C)c3c2)CC1 [Example 38, (S)-1-(3-fluoro-2-methylphenyl)-N-hydroxy-3-(1-methyl-1H-indazol-6-yl)cyclopent-2-enecarboxamide]
490 nM	Cc1c(F)cccc1C1(C(=O)NO)CC=C(c2cncc(F)c2)CC1 (stereo not drawn) [Example 44, 3′-fluoro-4-(5-fluoropyridin-3-yl)-N-hydroxy-2′-methyl-1,2,3,6-tetrahydro-[1,1′-biphenyl]-1-carboxamide]
10 nM	Cc1c([C@@]2(C(=O)NO)C=C(c3ccc4cnn(C)c4c3)CC2)ccc(F)c1F [Example 42, (S)-1-(3,4-difluoro-2-methylphenyl)-N-hydroxy-3-(1-methyl-1H-indazol-6-yl)cyclopent-2-enecarboxamide]
40 nM	Cc1c(F)cccc1[C@@]1(C(=O)NO)C=C(C2CC2)CC1 [Example 32, (S)-3-cyclopropyl-1-(3-fluoro-2-methylphenyl)-N-hydroxycyclopent-2-enecarboxamide]
340 nM	O=C(NO)[C@]1(c2ccccc2)C=C(c2cncc(F)c2)CC1 [Example 35, (S)-3-(5-fluoropyridin-3-yl)-N-hydroxy-1-phenylcyclopent-2-enecarboxamide]
20 nM	Cc1c(F)cccc1[C@@]1(C(=O)NO)C=C(c2cc3ccccc3s2)CC1 [Example 41, (S)-3-(benzo[b]thiophen-2-yl)-1-(3-fluoro-2-methylphenyl)-N-hydroxycyclopent-2-enecarboxamide]
20 nM	Cc1ncc(Cl)cc1C1=C[C@](C(=O)NO)(c2cccc(F)c2C)CC1 [Example 36, (S)-3-(5-chloro-2-methylpyridin-3-yl)-1-(3-fluoro-2-methylphenyl)-N-hydroxycyclopent-2-enecarboxamide]
31000 nM	O=C(NO)[C@@]1(c2ccccc2)C=C(c2ccccc2)CC1 [Example 34, (R)—N-hydroxy-1,3-diphenylcyclopent-2-enecarboxamide]
30 nM	Cc1c(F)cccc1[C@@]1(C(=O)NO)C=C(c2ccc3cnn(C(F)F)c3c2)CC1 [Example 39, (S)-3-(1-(difluoromethyl)-1H-indazol-6-yl)-1-(3-fluoro-2-methylphenyl)-N-hydroxycyclopent-2-enecarboxamide]
